pIC50: −log10 of the molar value.
Tests used:
[1] = test system: Leishmania infantum; test: AntiLeishmania activity L. infantum (macrophages) IC50 (uM); type: functional, organism-based
[2] = test system: MRC5; test: MRC5 CC50 (uM) Cytotoxicity; type: functional; conditions: Homo sapiens
[3] = test system: Leishmania; test: AntiLeishmania activity Toxicity on infected PMM (uM); type: functional
[4] = test system: Trypanosoma cruzi; test: AntiTrypanosoma cruzi activity IC50 (uM); type: functional, organism-based
[5] = test system: HepG2; test: Cytotoxicity data HepG2 CC20 (uM); type: functional
[6] = test system: Trypanosoma brucei; test: AntiTrypanosoma brucei activity T. b. rhodesiense IC50 (uM); type: functional, organism-based
[7] = test system: L6; test: L6 CC50 (uM) Cytotoxicity; type: functional; conditions: Rattus norvegicus
[8] = test system: Leishmania donovani; test: AntiLeishmania activity L. donovani (macrophages) IC50 (uM); type: functional, organism-based
[9] = PMM CC50 (uM) Cytotoxicity; type: functional; conditions: Macrophage
[10] = test system: Trypanosoma brucei; test: AntiTrypanosoma brucei activity T. b. brucei IC50 (uM); type: functional, organism-based
[11] = test system: Leishmania donovani; test: AntiLeishmania activity L. donovani (axenic) IC50 (uM); type: functional, organism-based
[12] = HL60 CC50 (uM) Cytotoxicity; type: functional; conditions: HL-60
[13] = test system: Cryptosporidium parvum; test: AntiCryptosporidium parvum activity Compounds added at t0, IC 50 (uM); type: functional, organism-based
[14] = test system: Cryptosporidium parvum; test: AntiCryptosporidium parvum activity Compounds added 3h after t0, IC 50 (uM); type: functional, organism-based
[15] = test system: Toxoplasma gondii; test: AntiToxoplasma gondii activity data 2-day killing assay: inhibition at 10 uM (%) Experiment D; type: functional
[16] = test system: Toxoplasma gondii; test: AntiToxoplasma gondii activity data 2-day killing assay: IC50 (uM), Experiment F; type: functional, organism-based; conditions: Toxoplasma gondii, 48 h; read-out: IC50
[17] = test system: Toxoplasma gondii; test: AntiToxoplasma gondii activity data 2-day killing assay: inhibition at 10 uM (%) Experiment E; type: functional
[18] = test system: Toxoplasma gondii; test: AntiToxoplasma gondii activity data 2-day killing assay: IC50 (uM), Experiment G; type: functional, organism-based
[19] = test system: Toxoplasma gondii; test: AntiToxoplasma gondii activity data Inhibition of plaque forming efficiency (%) Experiment A; type: functional; set-up: concentration or dose not given beside the values
[20] = test system: Toxoplasma gondii; test: AntiToxoplasma gondii activity data 2-day killing assay: inhibition at 10 uM (%) Experiment C; type: functional; conditions: 48 h
[21] = test system: Onchocerca lienalis; test: AntiOnchocerca activity O. lienalis microfilariae Motility reduction (%); type: functional; set-up: concentration or dose not given beside the values

Row | Compound | pIC50 [1] | CC50 [2] | Toxicity on infected macrophages [3] | pIC50 [4] | CC20 [5] | pIC50 [6] | CC50 [7] | pIC50 [8] | CC50 [9] | pIC50 [10] | pIC50 [11] | CC50 [12] | also measured
1 | COc1ccc(C(=N)N)cc1-c1cn(-c2ccc(C(=N)N)cc2)nn1 | < 4.49 | > 32 µM | 30 µM | 4.67 | 5.47 µM | > 6.89 | 26.7 µM | < 4.52 | > 32 µM | 6.60 | 4.84 | – | –
2 | Cc1nc(-c2ccccn2)nc(NCCc2ccc(S(C)(=O)=O)cc2)c1Cl | < 4.49 | > 32 µM | 30 µM | 5.35 | 27.9 µM | < 4.49 | 13 µM | < 4.52 | > 32 µM | < 4.49 | 5.69 | – | –
3 | CS(=O)(=O)N1CCC(Cn2nc(Cc3cccc4ccccc34)c3c(N)ncnc32)CC1 | – | – | – | – | 53 µM | – | – | – | – | – | – | 47.3 µM | pIC50 [13]: 7.00; pIC50 [14]: < 5.00
4 | Nc1ncnc2[nH]nc(Cc3cccc4ccccc34)c12 | – | – | – | – | – | – | – | – | – | – | – | > 25 µM | Inhibition [15]: 89.2%; pIC50 [16]: 5.64; Inhibition [17]: 63.3%; pIC50 ([18]; Toxoplasma gondii, 48 h, read-out: IC50): 5.52; Inhibition [19]: 100%; inhibition at 10 µM [20]: 54.7%
5 | Nc1ncnc2c1c(Cc1cccc3ccccc13)nn2CC1CCNCC1 | – | – | – | – | >80 µM | – | – | – | – | – | – | > 50 µM | pIC50 [13]: 6.30; pIC50 [14]: 4.59
6 | CCOc1ccc2cc(-c3nn(CC4CCN(C)CC4)c4ncnc(N)c34)ccc2c1 | – | – | – | – | – | – | – | – | – | – | – | – | pIC50 [13]: 7.30
7 | COc1cc(NC(=O)Cc2nn(C)c(=O)c3ccccc23)ccc1Cl | – | – | – | – | >80 µM | – | – | – | – | – | – | > 50 µM | pIC50 [13]: > 7.00; pIC50 [14]: 6.17
8 | c1ccc(Oc2ccc(-c3cc(N4CCOCC4)[nH]n3)cc2)cc1 | 4.67 | > 32 µM | >30 µM | 4.80 | 7.47 µM | 5.89 | 10 µM | < 4.52 | > 32 µM | 5.46 | 5.41 | – | –
9 | CC(C)(C)n1nc(Cc2cccc3ccccc23)c2c(N)ncnc21 | – | – | – | – | 19 µM | – | – | – | – | – | – | 24.1 µM | pIC50 [13]: 7.00; pIC50 [14]: < 5.00
10 | FC(F)(F)c1cc(NCCc2ccccc2)nc(-c2ccccn2)n1 | 4.79 | > 32 µM | 30 µM | 5.37 | >80 µM | 4.57 | 5.3 µM | 5.29 | 16 µM | < 4.49 | 6.60 | – | –
11 | Clc1ccc(Cl)c(CO[C@H]2CCCC[C@@H]2n2ccnc2)c1 | 4.79 | > 32 µM | 30 µM | 5.87 | 37.1 µM | 4.64 | 30.7 µM | 4.89 | 16 µM | < 4.49 | 4.81 | – | –
12 | Cc1cc(NC(=O)c2ccc(Oc3ccc(Cl)cc3O)o2)no1 | – | – | – | – | – | – | – | – | – | – | – | > 50 µM | Inhibition [15]: 64.8%; pIC50 [16]: 5.14; Inhibition [17]: 22%; IC50 [18]: no inhibition; Inhibition [19]: ~85%; inhibition at 10 µM [20]: 70%
13 | O=C(Nc1c(O)cccc1-c1nc2c(C(=O)O)cccc2o1)c1cc(-c2ccccc2)on1 | < 4.49 | > 32 µM | >30 µM | < 4.49 | 5.73 µM | < 4.49 | 21.9 µM | < 4.52 | > 32 µM | < 4.49 | 6.24 | – | –
14 | Nc1ncc(-c2ccc(C(F)(F)F)nc2)cc1-c1ccc(C(F)(F)F)nc1 | – | – | – | – | >80 µM | – | – | – | – | – | – | – | Activity [21]: 93%
15 | CN1CCC(c2cc(-c3ccncc3)c(-c3ccc(F)cc3)[nH]2)CC1 | – | – | – | – | – | – | – | – | – | – | – | > 50 µM | Inhibition [15]: 100%; pIC50 [16]: 5.92; Inhibition [17]: 97.9%; Inhibition [19]: 100%; inhibition at 10 µM [20]: 99.3%
16 | O=C(Nc1ccccc1-c1nc2c(C(=O)O)cccc2o1)c1ccccc1 | < 4.49 | > 32 µM | >30 µM | < 4.49 | >80 µM | < 4.49 | 45.4 µM | < 4.52 | > 32 µM | < 4.49 | 6.40 | – | –
17 | c1ccc(Oc2ccc(-c3cc(CN4CCOCC4)[nH]n3)cc2)cc1 | < 4.49 | > 32 µM | 30 µM | 4.80 | 28.9 µM | 5.28 | 22.9 µM | 4.58 | > 32 µM | 4.82 | 5.01 | – | –

From ChEMBL document CHEMBL3832761, “MMV Pathogen Box Bioactivity Data” (2017)
